Test results: US11332459B2 (TEIJIN PHARMA LIMITED, priority 2017, dated 2022)
Counter-ions that a name gives are not always drawn.

Each molecule was assayed against T1, human TRPC6 (Homo sapiens, UniProt Q9Y210) (assay: TRPC6 calcium flux assay (FLIPR, OAG-stimulated calcium influx)). Details: HEK293 cells stably transfected with human TRPC6, read-out: hTRPC6 Potency.
T1 construct: expressed in transfected cells
T1 sequence (Q9Y210 1-931): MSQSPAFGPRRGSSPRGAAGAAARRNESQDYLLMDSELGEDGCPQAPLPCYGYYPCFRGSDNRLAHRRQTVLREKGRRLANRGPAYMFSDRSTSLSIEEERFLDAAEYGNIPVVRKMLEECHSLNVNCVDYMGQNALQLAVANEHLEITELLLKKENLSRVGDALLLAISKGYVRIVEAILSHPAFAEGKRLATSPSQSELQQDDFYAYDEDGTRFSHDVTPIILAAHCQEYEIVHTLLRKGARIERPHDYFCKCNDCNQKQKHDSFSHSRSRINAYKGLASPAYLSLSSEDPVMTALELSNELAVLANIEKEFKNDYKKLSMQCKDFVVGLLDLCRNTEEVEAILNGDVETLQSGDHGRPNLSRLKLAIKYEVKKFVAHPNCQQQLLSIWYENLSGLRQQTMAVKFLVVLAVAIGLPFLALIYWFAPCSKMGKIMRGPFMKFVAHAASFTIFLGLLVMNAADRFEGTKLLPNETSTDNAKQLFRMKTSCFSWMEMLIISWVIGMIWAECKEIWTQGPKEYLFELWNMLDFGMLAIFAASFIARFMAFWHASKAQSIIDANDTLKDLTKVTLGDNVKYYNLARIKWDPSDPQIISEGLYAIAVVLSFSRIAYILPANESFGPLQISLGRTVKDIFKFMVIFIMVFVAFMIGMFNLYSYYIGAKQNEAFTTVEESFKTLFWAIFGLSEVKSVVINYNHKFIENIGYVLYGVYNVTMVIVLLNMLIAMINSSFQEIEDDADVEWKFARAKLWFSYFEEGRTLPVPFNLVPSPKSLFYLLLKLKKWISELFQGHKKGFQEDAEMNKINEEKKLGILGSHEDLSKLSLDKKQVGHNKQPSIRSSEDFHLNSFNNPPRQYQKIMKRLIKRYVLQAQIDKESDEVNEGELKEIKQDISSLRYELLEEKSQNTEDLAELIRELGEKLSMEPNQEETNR
Format: cell-based
Outline: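 HEK293 cells stably expressing human TRPC6, loaded with calcium dye 90–120 min at RT, then given compound for 25 min before OAG (50 uM final, 0.5% DMSO) in HEPES buffer pH 7.2 with 2 mM CaCl2. Background-subtracted FLIPR peak over 180 s normalized to OAG vs buffer; IC50 from dose plot.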
Work on `N[C@@H]1CN(c2nc3cc(F)c(F)cc3n2Cc2cccc(OC(F)(F)F)c2)CC[C@H]1F` [Example 364, (3R,4R)-1-(5,6-difluoro-1-(3-(trifluoromethoxy)benzyl)-1H-benzimidazol-2-yl)-4-fluoro-3-piperidinamine] yielded an IC50 of 1020 nM. `N[C@@H]1CN(c2nc3ccc(F)cc3n2CC(=O)NCCC(F)(F)F)CC[C@H]1F` [Example 673, 2-(2-((3R,4R)-3-amino-4-fluoropiperidin-1-yl)-6-fluoro-1H-benzo[d]imidazol-1-yl)-N-(3,3,3-trifluoropropyl)acetamide] was tested, and the IC50 was over 3750 nM. For `C[C@@H](c1ccc(F)cc1F)n1c(N2CC[C@@H](F)[C@H](N)C2)nc2cc(F)c(F)cc21` [Example 331, (3R,4R)-1-(1-((1S)-1-(2,4-difluorophenyl)ethyl)-5,6-difluoro-1H-benzimidazol-2-yl)-4-fluoro-3-piperidinamine], the IC50 was 204 nM. With `N#Cc1ccc(Cn2c(N3CCC(F)(F)[C@H](N)C3)nc3cc(F)ccc32)nc1` [Example 71, (R)-6-((2-(3-amino-4,4-difluoropiperidin-1-yl)-5-fluoro-1H-benzo[d]imidazol-1-yl)methyl)nicotinonitrile hydrochloride] the IC50 was 5.62 nM. For `CN[C@H]1CCCN(c2nc3ccccc3n2Cc2ccc(C#N)cn2)C1` [Example 116, 6-((2-((3S)-3-(methylamino)-1-piperidinyl)-1H-benzimidazol-1-yl)methyl)-3-pyridinecarbonitrile], the IC50 was 7.79 nM. Molecule `COc1ccc2nc(N3CCC[C@H](N)C3)n(Cc3ccc(C#N)cc3)c2c1` [Example 402, (S)-4-((2-(3-aminopiperidin-1-yl)-6-methoxy-1H-benzo[d]imidazol-1-yl)methyl)benzonitrile hydrochloride] has an IC50 of 1.33 nM. `N#Cc1ccc(Cn2c(N3CCC[C@H](N)C3)nc3ccccc32)c(F)c1` [Example 315, (S)-4-((2-(3-aminopiperidin-1-yl)-1H-benzo[d]imidazol-1-yl)methyl)-3-fluorobenzonitrile hydrochloride] was tested, and the IC50 was over 50000 nM. For `C[C@@H](C(=O)N(C)C)n1c(N2CC[C@@H](F)[C@H](N)C2)nc2cc(F)c(F)cc21` [Example 280, (2S)-2-(2-((3R,4R)-3-amino-4-fluoro-1-piperidinyl)-5,6-difluoro-1H-benzimidazol-1-yl)-N,N-dimethylpropanamide], the IC50 was 1.47 nM. Work on `CC1CCN1C(=O)Cn1c(N2CC[C@@H](F)[C@H](N)C2)nc2cc(F)c(F)cc21` (stereo partly drawn) [Example 600, 2-(2-((3R,4R)-3-amino-4-fluoropiperidin-1-yl)-5,6-difluoro-1H-benzo[d]imidazol-1-yl)-1-(2-methylazetidin-1-yl)ethanone] yielded an IC50 of 5.38 nM. Molecule `N#Cc1ccc2c(c1)nc(N1CC[C@@H](F)[C@H](N)C1)n2Cc1cnc(C#N)cn1` [Example 250, 2-((3R,4R)-3-amino-4-fluoro-1-piperidinyl)-1-((5-cyano-2-pyrazinyl)methyl)-1H-benzimidazole-5-carbonitrile] has an IC50 of 78.5 nM. `N#Cc1ccc(Cn2c(N3CC[C@](O)(CN)C3)nc3ccccc32)cc1` [Example 177, (S)-4-((2-(3-(aminomethyl)-3-hydroxypyrrolidin-1-yl)-1H-benzo[d]imidazol-1-yl)methyl)benzonitrile 2,2,2-trifluoroacetate] was tested, and the IC50 was 1540 nM. In the case of `N[C@@H]1CN(c2nc3cc(F)c(F)cc3n2Cc2ccc(Cl)c(Cl)c2)CC[C@H]1F` [Example 359, (3R,4R)-1-(1-(3,4-dichlorobenzyl)-5,6-difluoro-1H-benzimidazol-2-yl)-4-fluoro-3-piperidinamine], the IC50 is reported as 238 nM. `CN(C)C(=O)Cn1c(N2CC[C@@H](F)[C@H](N)C2)nc2ccc(F)cc21` [Example 566, 2-(2-((3R,4R)-3-amino-4-fluoropiperidin-1-yl)-6-fluoro-1H-benzo[d]imidazol-1-yl)-N,N-dimethylacetamide] gave an IC50 of 35.2 nM. With `CS(=O)(=O)c1ccc(Cn2c(N3CCC[C@@H](N)C3)nc3ccccc32)cc1` [Example 370, (R)-1-(1-(4-(methylsulfonyl)benzyl)-1H-benzo[d]imidazol-2-yl)piperidin-3-amine] the IC50 was over 50000 nM. `N[C@@H]1CN(c2nc3cc(F)c(F)cc3n2Cc2ccc(Cl)c(F)c2)CC[C@H]1F` [Example 360, (3R,4R)-1-(1-(4-chloro-3-fluorobenzyl)-5,6-difluoro-1H-benzimidazol-2-yl)-4-fluoro-3-piperidinamine] showed an IC50 of 42.9 nM. With `CN(CC(F)(F)F)C(=O)Cn1c(N2CC[C@@H](O)[C@H](N)C2)nc2ccc(F)cc21` [Example 481, 2-(2-((3R,4R)-3-amino-4-hydroxypiperidin-1-yl)-6-fluoro-1H-benzo[d]imidazol-1-yl)-N-methyl-N-(2,2,2-trifluoroethyl)acetamide] the IC50 was 2400 nM. `CN(C)C(=O)Cn1c(N2CC[C@@H](F)[C@H](N)C2)nc2cc(F)cc(F)c21` [Example 594, 2-(2-((3R,4R)-3-amino-4-fluoropiperidin-1-yl)-5,7-difluoro-1H-benzo[d]imidazol-1-yl)-N,N-dimethylacetamide] was tested, and the IC50 was over 3750 nM. For `CCC1CN(C(=O)Cn2c(N3CC[C@@H](F)[C@H](N)C3)nc3cc(F)c(F)cc32)CCO1` (stereo partly drawn) [Example 513, 2-(2-((3R,4R)-3-amino-4-fluoropiperidin-1-yl)-5,6-difluoro-1H-benzo[d]imidazol-1-yl)-1-(2-ethylmorpholino)ethan-1-one], the IC50 was 183 nM. With `N#Cc1cc(F)cc2c1nc(N1CC[C@@H](F)[C@H](N)C1)n2Cc1ncc(Cl)cn1` [Example 31, 2-((3R,4R)-3-amino-4-fluoropiperidin-1-yl)-1-((5-chloropyrimidin-2-yl)methyl)-6-fluoro-1H-benzo[d]imidazole-4-carbonitrile] the IC50 was 0.476 nM. `Cc1cc2nc(N3CC[C@@H](F)[C@H](N)C3)n(Cc3ccc(C#N)cn3)c2cc1C` [Example 44] was tested, and the IC50 was 0.952 nM. `N#Cc1ccc(Cn2c(N3CC[C@@H](F)[C@H](N)C3)nc3c(C#N)cccc32)nc1` [Example 11, 2-((3R,4R)-3-amino-4-fluoropiperidin-1-yl)-1-((5-cyanopyridin-2-yl)methyl)-1H-benzo[d]imidazole-4-carbonitrile] showed an IC50 of 1.79 nM. `CC1COCC(C)N1C(=O)Cn1c(N2CC[C@@H](F)[C@H](N)C2)nc2ccc(F)cc21` (stereo partly drawn) [Example 683, 2-(2-((3R,4R)-3-amino-4-fluoropiperidin-1-yl)-6-fluoro-1H-benzo[d]imidazol-1-yl)-1-(3,5-dimethylmorpholino)ethan-1-one] was tested, and the IC50 was 290 nM. `N#Cc1ccc(Cn2c(N3CC[C@@H](F)[C@H](N)C3)nc3cc(Cl)ccc32)nc1` [Example 7, 6-((2-((3R,4R)-3-amino-4-fluoropiperidin-1-yl)-5-chloro-1H-benzo[d]imidazol-1-yl)methyl)nicotinonitrile] showed an IC50 of 1.17 nM. With `N#Cc1ccc2c(c1)CC[C@@H]2n1c(N2CC[C@@H](F)[C@H](N)C2)nc2ccccc21` [Example 232, (S)-1-(2-((3R,4R)-3-amino-4-fluoropiperidin-1-yl)-1H-benzo[d]imidazol-1-yl)-2,3-dihydro-1H-indene-5-carbonitrile hydrochloride] the IC50 was 2.16 nM. Work on `Cc1cc(Cn2c(N3CC[C@@H](F)[C@H](N)C3)nc3cc(F)c(F)cc32)ccc1C#N` (stereo in doubt) [Example 345, 4-((2-((3R,4R)-3-amino-4-fluoro-1-piperidinyl)-5,6-difluoro-1H-benzimidazol-1-yl)methyl)-2-methylbenzonitrile] yielded an IC50 of 1.5 nM. In the case of `N[C@@H]1CN(c2nc3cc(F)ccc3n2Cc2ncc(Cl)cn2)CC[C@@H]1F` [Example 40, (3R,4S)-1-(1-((5-chloropyrimidin-2-yl)methyl)-5-fluoro-1H-benzo[d]imidazol-2-yl)-4-fluoropiperidin-3-amine], the IC50 is reported as 4.61 nM. With `CN(CC(F)(F)F)C(=O)Cn1c(N2CC[C@@H](F)[C@H](N)C2)nc2cc(F)c(F)cc21` [Example 500, 2-(2-((3R,4R)-3-amino-4-fluoropiperidin-1-yl)-5,6-difluoro-1H-benzo[d]imidazol-1-yl)-N-methyl-N-(2,2,2-trifluoroethyl)acetamide] the IC50 was 5.15 nM. `C[C@H]1CCN(c2nc3ccccc3n2Cc2ccc(C#N)cc2)C[C@@H]1N` [Example 182, 4-((2-((3R,4S)-3-amino-4-methylpiperidin-1-yl)-1H-benzo[d]imidazol-1-yl)methyl)benzonitrile 2,2,2-trifluoroacetate] was tested, and the IC50 was 314 nM. `CN(CC(F)(F)F)C(=O)Cn1c(N2CC[C@@H](F)[C@H](N)C2)nc2c(C#N)cc(F)cc21` [Example 447, 2-(2-((3R,4R)-3-amino-4-fluoropiperidin-1-yl)-4-cyano-6-fluoro-1H-benzo[d]imidazol-1-yl)-N-methyl-N-(2,2,2-trifluoroethyl)acetamide] gave an IC50 of 119 nM.
